Assay results reported in patent publication EP0894089B9, “NOVEL HETEROCYCLIC COMPOUNDS HAVING ANTIDIABETIC, HYPOLIPIDAEMIC, ANTIHYPERTENSIVE PROPERTIES, PROCESS FOR THEIR PREPARATION AND PHARMACEUTICAL COMPOSITIONS CONTAINING THEM” (Dr. Reddy's Laboratories Ltd., priority 1997, dated 1997).
Where a name gives a salt, the structure may show the parent alone.

System: C57BL/KsJ-db/db mice
Experiment: blood sugar and triglycerides lowering activity in db/db mice (in vivo)
Settings: male C57BL/KsJ-db/db mice; for Triglyceride Lowering (%) / Reduction in Blood Glucose Level (%): 30 mg / kg oral gavage daily for 6 days, one hour after administration; for Triglyceride Lowering (%): plasma triglyceride on 6th day; for Reduction in Blood Glucose Level (%): random plasma glucose on 6th day
Source text: Mutation in colonies of laboratory animals and different sensitivities to dietary regimens have made the development of animal models with non-insulin dependent diabetes associated with obesity and insulin resistance possible. Genetic models such as db/db and ob/ob (See Diabetes, (1982) 31(1) : 1- 6) in mice and fa/fa and zucker rats have been developed by the various laboratories for understanding the pathophysiology of disease and testing the efficacy of new antidiabetic compounds (Diabetes, (1983) 32: 830-838; Annu. Rep. Sankyo Res. Lab. (1994). 46 : 1-57). The homozygous animals, C57 BL/KsJ-db/db mice developed by Jackson Laboratory, US, are obese, hyperglycemic, hyperinsulinemic and insulin resistant (J. Clin. Invest., (1990) 85 : 962-967), whereas heterozygous are lean and normoglycemic. In db/db model, a mouse progressively develops insulinopenia with age, a feature commonly observed in late stages of human type II diabetes when blood sugar levels are insufficiently controlled. The state of pancreas and its course vary according to the models. Since this model resembles that of type II diabetes mellitus, the compounds of the present invention were tested for blood sugar and triglycerides lowering activities.
Male C57BL/KsJ-db/db mice of 8 to 14 weeks age, having body weight range of 35 to 60 grams, procured from the Jackson Laboraotory, USA, were used in the experiment. The mice were provided with standard feed (National Institute of Nutrition, Hyderabad, India) and acidified water, ad libitum. The animals having more than 300 mg / dl blood sugar were used for testing. The number of animals in each group was 4.
The random blood sugar and triglyceride levels were measured by collecting blood (100 µl) through orbital sinus, using heparinised capillary in tubes containing EDTA which was centrifuged to obtain plasma. The plasma glucose and triglyceride levels were measured spectrometrically, by glucose oxidase and glycerol-3-PO4 oxidase/peroxidase enzyme (Dr. Reddy's Lab. Diagnostic Division Kits, Hyderabad, India) methods respectively. On 6th day the blood samples were collected one hour after administration of test compounds / vehicle for assessing the biological activity.
Test compounds were suspended on 0.25 % carboxymethyl cellulose and administered to test group at a dose of 30 mg / kg through oral gavage daily for 6 days. The control group received vehicle (dose 10 ml / kg).
The blood sugar and triglycerides lowering activities of the test compound was calculated according to the formula: Blood sugar / triglycerides lowering activity (%) = 1 -(DT/DC)/(TC/ZC)X 100 [formula] • ZC = Zero day control group value • DC = Zero day treated group value • TC = Control group value on test day • DT = Treated group value on the test day

Row | Compound | Triglyceride Lowering (%) | Reduction in Blood Glucose Level (%) | reduction in random blood sugar level (100 mg / kg, daily dose, on 6th day)
1 | Cc1oc2c(C)c(C)c(OCc3ccccc3)c(C)c2c1CN1CCC[C@H]1COc1ccc(C=C2SC(=O)NC2=O)cc1 [Example 20, 5-[4-[N-(5-Benzyloxy-2,4,6,7-tetramethylbenzofuran-3-ylmethyl)-(2S)-pyrrolidine-2-methoxy]phenylmethylene]thiazolidine-2,4-dione] | 43% | 16% | –
2 | Cc1c(C)c2c(c(C)c1O)CCC(C)(COc1ccc(CC3SC(=O)NC3=O)cc1)O2 (stereo not shown) [Troglitazone, reference compound] | – | – | 28%
3 | Cc1c(C)c2c(c(C)c1OCc1ccccc1)CCC(C)(CN1CCC[C@H]1COc1ccc(CC3SC(=O)NC3=O)cc1)O2 (stereo partly drawn) [Example 7, 5-[4-[N-(2RS)-6-Benzyloxy-2,5,7,8,-tetramethylchroman-2-ylmethyl]-(2S)-pyrrolidine-2-methoxy]phenyl methyl]thiazolidine-2,4-dione, sodium salt] | 70% | 36% | –
4 | Cc1c(C)c2c(c(C)c1OCc1ccccc1)C(CN1CCC[C@H]1COc1ccc(C=C3SC(=O)NC3=O)cc1)C(C)(C)O2 (stereo partly drawn) [Example 13, 5-[4-[N-[3(RS)-5-Benzyloxy-2,3-dihydro-2,2,4,6,7-pentamethylbenzofuran-3-ylmethyl]-(2S)-pyrrolidine-2-methoxy]phenylmethylene]thiazolidine-2,4-dione maleate] | 42% | 45% | –
